What was measured:
IL-17 = IL-17 secretion by ELISA in TNFα-induced mouse splenocytes; assay type: cell-based; settings: TNFα 20 nM, 24 hours
Procedure: (§1) Inflammation was induced by treating mouse splenocytes with the inflammatory cytokine TNFα, and the secretion amounts of the inflammatory cytokines IL-17, IL-1B, and IFNγ were confirmed. IL-17 corresponds to a pro-inflammatory cytokine, and the descriptions of IL-1β and IFNγ are the same as above.
(§2) Mouse splenocytes were dispensed into a 24-well plate at a concentration of 1×10^7 cells/well and cultured until the next day. The medium was replaced with serum-free medium, and after 4 hours, the cells were treated with TNFα and the peptide of the present invention and then cultured again for another 24 hours. In order to induce inflammation, the cells were treated with TNFα at 20 nM, and the peptide at 5 μM and 50 μM, respectively. The mouse splenocytes in the group in which inflammation was not induced due to untreatment with TNFα (NON); the negative control group in which the cells were treated with TNFα but not treated with the peptide (NC); and the group in which the cells were treated with TNFα along with the peptide of the present invention at the same concentration as above, respectively, were reacted as described above and the cell cultures were recovered. […]

Cox2 = Cox2 protein level by Western blot in TNFα-induced HaCaT cells; assay type: cell-based, human; settings: TNFα 20 nM, peptide at 5 μM and 50 μM, 24 hours, compared to group not treated with TNFα
Procedure: In order to confirm the anti-inflammatory effect of treatment with the peptides of the present invention having the amino acid sequence of SEQ ID NO: 1, inflammation was induced in HaCaT cells, which are human keratinocytes, and the expression level of Cox2 protein was confirmed. In order to induce inflammation, the cells were treated with TNFα, which is an inflammation-inducing cytokine, and since Cox2 is an enzyme involved in the synthesis of prostaglandins corresponding to an inflammation-related protein, it is possible to confirm whether inflammation is inhibited by measuring the expression level of Cox2.
HaCaT cells were dispensed into a 24-well plate at a concentration of 3× 10^5 cells/well and cultured until the next day. The medium was replaced with serum-free medium, and after 4 hours, the cells were treated with TNFα and the peptide of the present invention and cultured again for another 24 hours. In order to induce inflammation, the cells were treated with TNFα at 20 nM, and treated with the peptide at 5 μM and 50 μM, respectively. […] In order to perform Western blotting, the amount of Cox2 protein was measured using an anti-Cox2 antibody (Cell Signaling Technology, USA). […]

IFNγ = IFNγ secretion by ELISA in LPS-induced mouse splenocytes; assay type: cell-based; settings: LPS 2 μg/mL, peptide at 5 μM and 50 μM, 24 hours
Procedure: (§3) Inflammation was induced in mouse splenocytes, and the secretion amounts of inflammatory cytokines TNFα, IL-1β, and IFNγ were confirmed. In order to induce inflammation, the cells were treated with an inflammation-inducing antigen, LPS, and since TNFα corresponds to a signaling protein associated with inflammation, IL-1β corresponds to a cytokine that promotes inflammation, and IFNγ also corresponds to a cytokine that promotes inflammation, the degree of inflammation can be confirmed by measuring the secretion amounts of TNFα, IL-1B, and IFNγ.
(§4) Mouse splenocytes were dispensed into a 24-well plate at a concentration of 1×10^7 cells/well and cultured until the next day. The medium was replaced with serum-free medium, and after 4 hours, the cells were treated with LPS and the peptide of the present invention and then cultured again for another 24 hours. In order to induce inflammation, the cells were treated with LPS at 2 μg/mL, and the peptide at 5 μM and 50 μM, respectively. […]

TNFα = TNFα mRNA level by RT-PCR in LPS-induced mouse splenocytes; assay type: cell-based; settings: LPS 2 μg/mL, peptide at 5 μM and 50 μM, 24 hours, compared to group not treated with the peptide
Procedure: (§5) Inflammation was induced in mouse splenocytes, and the expression levels of TNFα, and IL-6 genes, which is the inflammatory cytokines were confirmed. In order to induce inflammation, the cells were treated with LPS, an inflammation-inducing antigen, and since TNFα corresponds to a signaling protein associated with inflammation, and IL-6 corresponds to a cytokine that promotes inflammation, the degree of inflammation can be confirmed by measuring the expression levels of TNFα and IL-6 genes.
(§6) Mouse splenocytes were dispensed into a 24-well plate at a concentration of 1×10^7 cells/well and cultured until the next day. The medium was replaced with serum-free medium, and after 3 hours, the cells were treated with LPS and the peptide of the present invention and then cultured again for another 24 hours. In order to induce inflammation, the cells were treated with LPS at 2 μg/mL, and the peptide at […] and 50 μM, respectively. […] After quantifying the amount of isolated RNA, cDNA was synthesized using a cDNA synthesis kit (Intron, Korea), PCR was performed using a PCR premix (Intron, Korea) and primers for TNFα, and IL-6. […]

IL-6 = IL-6 mRNA level by RT-PCR in LPS-induced mouse splenocytes; assay type: cell-based; settings: LPS 2 μg/mL, peptide at 5 μM and 50 μM, 24 hours, compared to group not treated with the peptide
Procedure: as §5, §6

IL-1β [1] = assay: IL-1β secretion by ELISA in LPS-induced mouse splenocytes; assay type: cell-based; settings: LPS 2 μg/mL, peptide at 5 μM and 50 μM, 24 hours
Procedure: as §3, §4

IL-1β [2] = assay: IL-1β secretion by ELISA in TNFα-induced mouse splenocytes; assay type: cell-based; settings: TNFα 20 nM, 24 hours
Procedure: as §1, §2

## TWNS [peptide of the present invention]
IL-17; peptide at 5 μM
  secretion amount of IL-17: slightly increased
IL-17; peptide at 50 μM
  secretion amount of IL-17: decreased
Cox2
  expression level of Cox2 protein: decreased
IFNγ
  secretion amount of IFNγ: decreased
TNFα
  mRNA expression level of TNFα: decreased
IL-6
  mRNA expression level of IL-6: decreased
IL-1β [1]
  secretion amount of IL-1β: decreased
IL-1β [2]; peptide at 5 μM
  secretion amount of IL-1β: decreased
IL-1β [2]; peptide at 50 μM
  secretion amount of IL-1β: decreased

— patent publication US20250340590A1, “PEPTIDE HAVING ANTI-INFLAMMATORY ACTIVITY AND USE THEREOF” (CAREGEN CO., LTD., priority 2021, published 2025)
